Results published in ChEMBL document CHEMBL5247649, “Comparative Efficacy and Selectivity of Pharmacological Inhibitors of DYRK and CLK Protein Kinases” (J Med Chem, 2023).

Legend:
[1] = biological target: T1, Glycogen synthase kinase-3 beta (Homo sapiens, UniProt P49841)
in vitro = conditions: mouse, ht-22
[2] = biological target: T2, Dual specificity tyrosine-phosphorylation-regulated kinase 3 (Homo sapiens, UniProt O43781); assay: biochemical; type: cell-based, Sf9
T2 sequence (O43781 whole entry): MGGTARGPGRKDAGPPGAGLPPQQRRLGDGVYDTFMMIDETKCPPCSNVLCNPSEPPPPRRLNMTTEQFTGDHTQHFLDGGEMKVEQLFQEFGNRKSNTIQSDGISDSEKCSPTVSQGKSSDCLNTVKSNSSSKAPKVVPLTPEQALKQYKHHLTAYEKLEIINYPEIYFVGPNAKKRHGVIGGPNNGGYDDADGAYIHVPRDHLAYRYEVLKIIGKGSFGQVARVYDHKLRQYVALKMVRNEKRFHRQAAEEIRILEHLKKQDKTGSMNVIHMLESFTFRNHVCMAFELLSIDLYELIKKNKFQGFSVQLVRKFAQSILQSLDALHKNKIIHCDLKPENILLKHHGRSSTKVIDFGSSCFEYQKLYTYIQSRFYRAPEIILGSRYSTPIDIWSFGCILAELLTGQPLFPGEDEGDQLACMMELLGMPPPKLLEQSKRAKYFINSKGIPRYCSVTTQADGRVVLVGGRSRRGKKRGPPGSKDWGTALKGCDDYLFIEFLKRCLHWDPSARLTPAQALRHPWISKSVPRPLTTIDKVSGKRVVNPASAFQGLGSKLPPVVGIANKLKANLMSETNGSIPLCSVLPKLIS

[3] = biological target: T1, Glycogen synthase kinase-3 beta; assay: biochemical; type: cell-based, Sf9
[4] = biological target: Dual specificity protein kinase CLK4 (Homo sapiens, UniProt Q9HAZ1); assay: biochemical
[5] = biological target: Cyclin-dependent kinase 5/CDK5 activator 1 (Homo sapiens, UniProt Q00535); assay: biochemical; type: cell-based, Sf9
[6] = biological target: Dual specificity protein kinase CLK3 (Homo sapiens, UniProt P49761); assay: biochemical; type: cell-based, Sf9
[7] = biological target: T3, Dual specificity tyrosine-phosphorylation-regulated kinase 2 (Homo sapiens, UniProt Q92630); assay: biochemical; type: cell-based, Sf9
T3 sequence (Q92630 whole entry): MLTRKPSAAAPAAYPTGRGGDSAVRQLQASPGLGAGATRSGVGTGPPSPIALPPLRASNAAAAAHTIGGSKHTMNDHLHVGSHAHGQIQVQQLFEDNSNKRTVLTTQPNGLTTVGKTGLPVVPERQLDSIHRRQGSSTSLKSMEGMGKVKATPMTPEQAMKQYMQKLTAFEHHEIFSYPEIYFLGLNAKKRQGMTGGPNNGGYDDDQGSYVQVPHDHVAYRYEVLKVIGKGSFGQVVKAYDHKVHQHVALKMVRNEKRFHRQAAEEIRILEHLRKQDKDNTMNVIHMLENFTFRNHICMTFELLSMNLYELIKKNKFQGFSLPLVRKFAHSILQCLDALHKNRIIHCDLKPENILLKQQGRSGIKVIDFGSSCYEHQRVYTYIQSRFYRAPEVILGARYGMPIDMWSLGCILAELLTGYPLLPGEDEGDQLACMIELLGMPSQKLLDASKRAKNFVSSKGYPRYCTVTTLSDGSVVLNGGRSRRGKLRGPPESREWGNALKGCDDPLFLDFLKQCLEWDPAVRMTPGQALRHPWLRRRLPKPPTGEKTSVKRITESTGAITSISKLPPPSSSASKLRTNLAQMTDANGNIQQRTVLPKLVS

[8] = biological target: T4, Dual specificity tyrosine-phosphorylation-regulated kinase 4 (Homo sapiens, UniProt Q9NR20); assay: biochemical; type: cell-based, Sf9
T4 sequence (Q9NR20 whole entry): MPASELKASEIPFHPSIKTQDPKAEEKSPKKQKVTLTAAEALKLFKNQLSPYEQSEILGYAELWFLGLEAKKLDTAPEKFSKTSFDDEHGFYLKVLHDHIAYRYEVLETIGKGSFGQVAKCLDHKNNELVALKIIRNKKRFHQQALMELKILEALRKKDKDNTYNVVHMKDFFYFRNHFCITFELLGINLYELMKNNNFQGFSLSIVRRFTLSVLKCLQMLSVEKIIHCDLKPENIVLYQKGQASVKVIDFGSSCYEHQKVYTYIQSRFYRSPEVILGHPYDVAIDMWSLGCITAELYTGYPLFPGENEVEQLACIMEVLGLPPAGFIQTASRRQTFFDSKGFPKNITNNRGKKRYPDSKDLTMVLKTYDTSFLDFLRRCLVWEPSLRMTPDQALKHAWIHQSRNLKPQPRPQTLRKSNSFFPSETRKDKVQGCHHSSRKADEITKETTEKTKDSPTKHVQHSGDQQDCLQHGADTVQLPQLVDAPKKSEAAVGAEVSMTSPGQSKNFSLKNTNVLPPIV

[9] = biological target: T5, Dual specificity protein kinase CLK1 (Homo sapiens, UniProt P49759)
[10] = biological target: T5, Dual specificity protein kinase CLK1; assay: biochemical; type: cell-based, Sf9
[11] = biological target: Casein kinase I isoform epsilon (Homo sapiens, UniProt P49674); assay: biochemical; type: cell-based, Sf9
[12] = biological target: Dual specificity protein kinase CLK2 (Homo sapiens, UniProt P49760); assay: biochemical
[13] = biological target: T5, Dual specificity protein kinase CLK1; assay: biochemical; type: cell-based, Sf9; conditions: read-out: IC50

Sequence of Dual specificity protein kinase CLK4 (Q9HAZ1 whole entry): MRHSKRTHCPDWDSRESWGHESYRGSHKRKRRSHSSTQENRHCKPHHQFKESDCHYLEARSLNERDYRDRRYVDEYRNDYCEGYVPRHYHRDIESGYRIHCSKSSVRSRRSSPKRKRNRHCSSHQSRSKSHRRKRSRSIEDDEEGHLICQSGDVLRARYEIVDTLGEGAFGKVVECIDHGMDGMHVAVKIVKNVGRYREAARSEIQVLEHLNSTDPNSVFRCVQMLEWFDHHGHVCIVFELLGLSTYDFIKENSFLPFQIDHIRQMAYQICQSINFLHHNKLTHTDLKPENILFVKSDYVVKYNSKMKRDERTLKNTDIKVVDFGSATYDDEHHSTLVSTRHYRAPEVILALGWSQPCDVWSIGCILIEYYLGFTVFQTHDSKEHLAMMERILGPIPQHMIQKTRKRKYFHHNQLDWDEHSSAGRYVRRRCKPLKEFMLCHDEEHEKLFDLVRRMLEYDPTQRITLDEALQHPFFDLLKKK
Sequence of Cyclin-dependent kinase 5/CDK5 activator 1 (Q00535 whole entry): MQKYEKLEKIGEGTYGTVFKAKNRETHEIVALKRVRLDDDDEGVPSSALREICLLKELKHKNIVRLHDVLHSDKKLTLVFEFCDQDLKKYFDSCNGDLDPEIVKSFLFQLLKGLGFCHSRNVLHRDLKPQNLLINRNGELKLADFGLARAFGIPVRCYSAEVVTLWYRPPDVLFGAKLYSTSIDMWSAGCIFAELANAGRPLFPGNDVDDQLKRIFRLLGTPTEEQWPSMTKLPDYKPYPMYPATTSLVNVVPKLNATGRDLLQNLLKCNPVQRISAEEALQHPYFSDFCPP
Sequence of Cyclin-dependent kinase 5/CDK5 activator 1 (Q15078 whole entry, further chain): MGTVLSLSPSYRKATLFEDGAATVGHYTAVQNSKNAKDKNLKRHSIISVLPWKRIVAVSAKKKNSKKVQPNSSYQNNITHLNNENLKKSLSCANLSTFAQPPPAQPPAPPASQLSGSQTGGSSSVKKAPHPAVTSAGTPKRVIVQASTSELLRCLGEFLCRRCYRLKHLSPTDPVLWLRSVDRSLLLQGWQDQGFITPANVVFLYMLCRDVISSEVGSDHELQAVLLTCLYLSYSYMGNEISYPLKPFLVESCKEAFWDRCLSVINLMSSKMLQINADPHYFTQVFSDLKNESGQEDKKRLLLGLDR
Sequence of Dual specificity protein kinase CLK3 (P49761 whole entry): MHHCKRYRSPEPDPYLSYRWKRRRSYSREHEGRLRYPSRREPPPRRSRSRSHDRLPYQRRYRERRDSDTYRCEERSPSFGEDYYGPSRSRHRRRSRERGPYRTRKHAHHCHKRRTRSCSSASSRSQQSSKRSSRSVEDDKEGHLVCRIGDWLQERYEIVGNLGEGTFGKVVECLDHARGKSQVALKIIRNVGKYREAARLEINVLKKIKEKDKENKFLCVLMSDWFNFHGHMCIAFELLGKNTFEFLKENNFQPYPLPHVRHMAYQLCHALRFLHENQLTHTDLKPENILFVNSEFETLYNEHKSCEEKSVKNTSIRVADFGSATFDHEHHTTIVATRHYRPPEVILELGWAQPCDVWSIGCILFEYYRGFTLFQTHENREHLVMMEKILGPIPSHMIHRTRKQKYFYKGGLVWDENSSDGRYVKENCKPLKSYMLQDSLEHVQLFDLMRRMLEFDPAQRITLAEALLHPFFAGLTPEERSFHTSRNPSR
Sequence of Dual specificity protein kinase CLK2 (P49760 whole entry): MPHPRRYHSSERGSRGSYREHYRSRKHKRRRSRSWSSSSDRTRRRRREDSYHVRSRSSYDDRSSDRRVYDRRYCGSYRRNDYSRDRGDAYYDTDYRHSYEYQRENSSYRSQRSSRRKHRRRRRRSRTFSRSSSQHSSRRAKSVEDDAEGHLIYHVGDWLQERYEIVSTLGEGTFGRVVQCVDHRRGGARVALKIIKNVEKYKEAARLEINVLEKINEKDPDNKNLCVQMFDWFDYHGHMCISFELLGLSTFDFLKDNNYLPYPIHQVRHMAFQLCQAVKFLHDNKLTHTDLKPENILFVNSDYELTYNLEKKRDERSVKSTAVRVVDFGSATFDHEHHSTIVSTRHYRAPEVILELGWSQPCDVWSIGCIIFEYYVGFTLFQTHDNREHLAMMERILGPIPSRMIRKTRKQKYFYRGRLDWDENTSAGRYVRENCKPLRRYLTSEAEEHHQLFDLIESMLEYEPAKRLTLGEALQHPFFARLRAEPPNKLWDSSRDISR
Sequence of Casein kinase I isoform epsilon (P49674 whole entry, canonical isoform): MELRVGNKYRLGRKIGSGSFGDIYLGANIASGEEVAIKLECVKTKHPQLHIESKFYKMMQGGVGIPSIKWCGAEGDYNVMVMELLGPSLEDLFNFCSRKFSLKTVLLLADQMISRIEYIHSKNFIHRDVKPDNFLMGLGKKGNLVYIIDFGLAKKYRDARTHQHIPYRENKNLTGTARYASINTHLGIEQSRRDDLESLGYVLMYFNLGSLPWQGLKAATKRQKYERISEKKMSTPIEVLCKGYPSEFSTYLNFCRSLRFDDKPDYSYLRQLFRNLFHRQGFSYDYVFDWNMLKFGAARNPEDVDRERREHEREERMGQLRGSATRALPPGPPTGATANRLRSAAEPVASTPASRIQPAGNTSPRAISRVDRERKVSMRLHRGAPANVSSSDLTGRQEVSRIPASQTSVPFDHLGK
T5 sequence (P49759 whole entry): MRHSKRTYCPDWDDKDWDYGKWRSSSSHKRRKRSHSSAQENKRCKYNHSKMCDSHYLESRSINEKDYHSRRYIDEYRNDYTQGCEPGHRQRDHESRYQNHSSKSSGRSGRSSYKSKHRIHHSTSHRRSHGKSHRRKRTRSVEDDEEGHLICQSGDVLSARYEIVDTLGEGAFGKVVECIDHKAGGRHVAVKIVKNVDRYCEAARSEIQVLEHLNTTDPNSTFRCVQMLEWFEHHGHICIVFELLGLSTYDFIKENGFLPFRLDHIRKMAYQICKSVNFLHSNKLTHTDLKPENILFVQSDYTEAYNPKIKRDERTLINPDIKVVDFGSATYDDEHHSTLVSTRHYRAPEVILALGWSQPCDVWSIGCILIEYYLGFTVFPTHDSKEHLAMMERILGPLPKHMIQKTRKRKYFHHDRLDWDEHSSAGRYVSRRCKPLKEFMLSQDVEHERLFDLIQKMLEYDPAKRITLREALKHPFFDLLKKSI
T1 sequence (P49841 whole entry): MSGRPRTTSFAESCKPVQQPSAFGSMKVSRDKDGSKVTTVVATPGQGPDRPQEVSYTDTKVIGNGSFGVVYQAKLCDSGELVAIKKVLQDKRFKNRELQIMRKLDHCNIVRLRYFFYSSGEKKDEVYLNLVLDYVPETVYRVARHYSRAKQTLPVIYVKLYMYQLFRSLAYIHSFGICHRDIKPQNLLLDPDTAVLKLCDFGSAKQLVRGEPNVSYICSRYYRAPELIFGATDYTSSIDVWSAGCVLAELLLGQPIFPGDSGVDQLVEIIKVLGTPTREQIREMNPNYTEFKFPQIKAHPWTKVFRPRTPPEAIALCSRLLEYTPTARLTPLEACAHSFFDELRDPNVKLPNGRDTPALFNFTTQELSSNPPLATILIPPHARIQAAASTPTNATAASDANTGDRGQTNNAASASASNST

For `CCN1/C(=C/C(C)=O)Sc2ccc(O)cc21`, the Kd [1] was 1.64 µM, the IC50 at 48 h (in vitro) was > 100 µM and the IC50 [2] was 0.0826 µM. For the same compound, the IC50 [3] was 4.4 µM, the IC50 [4] was 0.0109 µM and the IC50 [5] was > 10 µM. It also gave an IC50 [6] of 4.79 µM, an IC50 [7] of 0.226 µM and an IC50 [8] of 0.894 µM. For the same compound, the Kd [9] was 0.00127 µM, the IC50 [10] was 0.0442 µM and the IC50 [11] was 2.98 µM. The IC50 [12] was 0.315 µM.

With `CCOC(=O)c1c(/C(C#N)=C\N)c2ccc(Cl)c(Cl)c2n1C` the Kd [1] was > 10 µM, the IC50 at 48 h (in vitro) was > 100 µM and the IC50 [2] was > 10 µM. For the same compound, the IC50 [3] was > 10 µM, the IC50 [4] was 0.0148 µM and the IC50 [5] was > 10 µM. The IC50 [7] was > 10 µM, the IC50 [8] was > 10 µM and the IC50 [11] was > 10 µM.

For `c1ccc(-c2ccc3[nH]ncc3c2)cc1`, the Kd [1] was 1.98 µM, the IC50 at 48 h (in vitro) was 42.5 µM and the IC50 [2] was 5.85 µM. For the same compound, the IC50 [3] was 7.51 µM, the IC50 [4] was 0.015 µM and the IC50 [13] was 0.0242 µM. It also gave an IC50 [5] of 1.8 µM, an IC50 [6] of 1.69 µM and an IC50 [7] of 1.25 µM. For the same compound, the IC50 [8] was > 10 µM, the Kd [9] was 0.00163 µM and the IC50 [10] was 0.0396 µM. The IC50 [11] was > 10 µM and the IC50 [12] was 0.211 µM.

For `COc1cc(N2CCN(C)CC2)ccc1Nc1nccc(-c2cn(C)c3cnccc23)n1`, the Kd [1] was > 10 µM, the IC50 at 48 h (in vitro) was 27.8 µM and the IC50 [2] was 1.22 µM. The IC50 [3] was > 10 µM, the IC50 [4] was 0.403 µM and the IC50 [13] was 0.175 µM. The IC50 [5] was 1.06 µM, the IC50 [6] was > 10 µM and the IC50 [7] was 0.764 µM. The IC50 [8] was 6.25 µM, the Kd [9] was 0.00735 µM and the IC50 [10] was 0.568 µM. For the same compound, the IC50 [11] was > 10 µM and the IC50 [12] was 3.5 µM.

In the case of `O=C(O)c1nc2ccccc2c2[nH]c3c(I)cccc3c12`, the Kd [1] is reported as 0.475 µM, the IC50 at 48 h (in vitro) is reported as > 100 µM and the IC50 [3] is reported as > 10 µM. For the same compound, the IC50 [4] was 0.316 µM, the IC50 [13] was 0.0146 µM and the IC50 [6] was > 10 µM. The IC50 [8] was > 10 µM, the Kd [9] was 0.00622 µM and the IC50 [10] was 3.61 µM. For the same compound, the IC50 [11] was > 10 µM and the IC50 [12] was 5.14 µM.

With `COC(=N)c1nc2ccc3ncnc(Nc4ccc(OC)cc4F)c3c2s1` the Kd [1] was 0.16 µM, the IC50 at 48 h (in vitro) was 21.6 µM and the IC50 [2] was > 10 µM. It also gave an IC50 [3] of 5.33 µM, an IC50 [4] of 0.0796 µM and an IC50 [13] of 0.111 µM. The IC50 [5] was > 10 µM, the IC50 [6] was > 10 µM and the IC50 [7] was 0.323 µM. For the same compound, the IC50 [8] was > 10 µM, the Kd [9] was 0.00763 µM and the IC50 [10] was 1.21 µM. For the same compound, the IC50 [11] was > 10 µM and the IC50 [12] was > 10 µM.

In the case of `COc1ccc2c3ccnc(Cl)c3n(CC#N)c2c1`, the Kd [1] is reported as 2.58 µM, the IC50 at 48 h (in vitro) is reported as 97 µM and the IC50 [2] is reported as 1.22 µM. The IC50 [3] was > 10 µM, the IC50 [4] was 0.0238 µM and the IC50 [13] was 0.0883 µM. The IC50 [5] was > 10 µM, the IC50 [6] was 4.92 µM and the IC50 [7] was 0.813 µM. The IC50 [8] was 8.37 µM, the Kd [9] was 0.0087 µM and the IC50 [10] was 0.157 µM. For the same compound, the IC50 [11] was > 10 µM and the IC50 [12] was 0.63 µM.

For `Oc1ccc(-c2cnc3[nH]cc(-c4ccc(F)cc4)c3c2)cc1O`, the Kd [1] was > 10 µM, the IC50 at 48 h (in vitro) was 9 µM and the IC50 [2] was > 10 µM. The IC50 [3] was > 10 µM, the IC50 [4] was 0.89 µM and the IC50 [13] was 0.18 µM. The IC50 [5] was > 10 µM, the IC50 [6] was > 10 µM and the IC50 [7] was 3.35 µM. The IC50 [8] was > 10 µM, the Kd [9] was 0.0708 µM and the IC50 [10] was 0.57 µM. For the same compound, the IC50 [11] was > 10 µM and the IC50 [12] was 1.99 µM.
